Experiment: Trial CF111/302: number of days with bleeding and/or spotting over 9 treatment cycles
Type: in vivo, women
Procedure: The study CF111/302 below represents a pivotal, multicentre, double-blind, double-dummy, randomised trial on the contraceptive efficacy, tolerability and safety of LF111 (DRSP) over 9 cycles of 28 days of treatment (24 active test product tablets followed by 4 days of placebo tablets).
LF111 film-coated tablets (test product; 24 tablets containing 4 mg DRSP followed by 4 placebo tablets; León Farma) was orally administered during this trial. LF111 tablets are of the following formula: […]
This prospective, multicentre, randomised, double-blind, double-dummy trial was conducted on 857 women without uncontrolled current diseases, at risk of pregnancy, at the age of 18-45 years, systolic blood pressure < 140 mmHg, diastolic blood pressure < 90 mmHg followed in approximately 73 centres in Austria, Czech Republic, Germany, Hungary, Poland, Romania, Slovakia and Spain.
After providing informed consent at visit 1a (screening; V 1a) and receiving study medication at visit 1b, subjects will attend visits 2 to 4 at day 24±2 of the 1st, 3rd, and 6th cycle, and visit 5 (V5) at day 29+2 of the 9th cycle. The follow-up (visit 6; V6) will take place 7-10 days after last LF1 1 1 intake.
The planned total duration of the trial was set to be 16 months, with a maximum of 6 months for the enrolment process, a maximum of 9 months for the contraceptive treatment per se and 10 days for the follow-up step. The duration of contraceptive treatment for the individual women is 9 x 28 days. […]

## C#C[C@]1(O)CC[C@H]2[C@@H]3CCC4=CCCC[C@@H]4[C@H]3C(=C)C[C@@]21CC [desogestrel]
Period cycles 2-4, BMI < 30 kg/m^2
  Bleeding or spotting Mean # days: 16.6 days
Period cycles 2-4, BMI ≥ 30 kg/m^2
  Bleeding or spotting Mean # days: 21.8 days
Period cycles 2-6, BMI < 30 kg/m^2
  Bleeding or spotting Mean # days: 24.1 days
Period cycles 2-6, BMI ≥ 30 kg/m^2
  Bleeding or spotting Mean # days: 16.3 days
Period cycles 2-9, BMI < 30 kg/m^2
  Bleeding or spotting Mean # days: 34.7 days
Period cycles 2-9, BMI ≥ 30 kg/m^2
  Bleeding or spotting Mean # days: 33.9 days
